Test results from patent publication EP4574817A1 (LoQus23 Therapeutics Limited, priority 2023, dated 2025).

Tests used:
[1] = target: T1, MutSβ (Homo sapiens, UniProt P20585+P43246); assay: MutSβ ADP Glo Assay; assay type: biochemical; conditions: 20nM MutSβ, 30nM CAG DNA, 25 µM ATP, 2 hours at room temperature
T1 construct: purchased AMRI
Procedure: Biological Example A - MutSβ Assay
• MutSβ (supplied by AMRI) stored at -70°C • ADP Glo Kinase Assay Kit (Promega: V9102) stored at -20°C • ATP (supplied within the ADP Glo Kit) stored at -20°C • 1M KCI (Sigma Aldrich: P9333) stored at 2-8°C • 1 M HEPES pH 7.5 (Gibco: M15630-080) stored at 2-8°C • 1M MgCl2 (Sigma Aldrich: M1028-100mL) stored at 2-8°C • Tween-20 (Sigma Aldrich: P1379) (10% solution) stored at 2-8°C • 500mM DTT (Sigma Aldrich: 10197777001) stored at -20°C • CAG loop DNA for MutSβ (made in house) stored at -20°C • MilliQ water stored at room temperature
• 1. Prepare the buffer fresh each day • 2. Take the enzyme from the freezer, thaw in room temperature water and centrifuge at 13,000 rpm for 10 minutes at 2-8C, then make up enzyme and ATP stocks • 3. Quality Control the multidrop head to a %CV of <2% • 4. Add 3µL of 33.34nM MutSβ and 50.01nM CAG looped DNA solution […] to each well in columns 1 and 3-23 of the plate • 5. Pre-incubate the MutSβ and buffer mix for 10 minutes with the compounds • 6. Wash the multidrop head through with MilliQ water (for at least 30 seconds) • 7. Add 3µL of MutSβ Assay buffer (without enzyme) to columns 2 and 24 for the vehicle controls • 8. Wash the multidrop head through with MilliQ water (for at least 30 seconds) • 9. Add 2µL of 62.5µM ATP to each well of the whole plate, then wash with MilliQ water (for a minimum of 30 seconds) • 10. Centrifuge plate for 1 minute at 1000 rpm • 11. Incubate for 2 hours at room temperature • 12. Add 5µL of ADP Glo reagent to each well of the whole plate and wash the multidrop head with MilliQ water (for a minimum of 30 seconds) • 13. Incubate for 40 minutes at room temperature (minimum requirement) • 14. Add 10µL of Kinase Detection Reagent to each well of the whole plate • 15. Wash the multidrop head with MilliQ water more than 1 minute and then dry • 16. Remove the head and put the cover back on for overnight storage • 17. Incubate for 30 minutes at room temperature (minimum requirement) • 18. Read on a microplate reader

[2] = tested on: U20S-IC6 cells; assay: Lo-Q platform assay (CAG repeat expansion in a clonal cell line with tetracycline-regulated exon 1 HTT ~100 CAG / nanoluc); assay type: cell-based; conditions: 336 h, 2-week assay with tetracycline pulsing, read-out: Minimum effective concentration (MEC)
Description: The cell line that was used in the assay below was generated as follows:
The pcDNA™4/TO vector contains two tetracycline operator 2 (TetO2) sites within the human cytomegalovirus immediate-early (CMV) promoter for tetracycline regulated expression of your gene of interest (Yao et al., 1998). The TetO2 sequences serve as binding sites for four Tet repressor molecules (comprising two Tet repressor homodimers) and confer tetracycline-responsiveness to the gene of interest. In the absence of tetracycline, expression of your gene of interest is repressed by the binding of Tet repressor homodimers to the TetO2 sequences. Addition of tetracycline to the cells de-represses the hybrid CMV/TetO2 promoter in pcDNA™4/TO and allows expression of your gene of interest. The pcDNA™6/TR regulatory plasmid is designed for use with the T-REx™ System for tetracycline-regulated expression of the gene of interest in mammalian cells. (www.lifetechnologies.com).
The expression sequence comprises exon 1 huntingtin with ~100 pure CAG repeats, a P2A self-cleaving peptide and a nanoluc sequence followed by a polyA signal. Full plasmid sequence is indicated (Seq ID NO:3). The plasmid contains sequences for ampicillin (bacterial propagation) and zeocin (mammalian cell lines) resistance.
The U-2 OS cell line (purchased from LGC standards, ATCC) is derived from a moderately differentiated sarcoma from the tibia of an adolescent person. Karyotyping has shown that although there are a lot of chromosomal abnormalities the tumour suppressor genes p53 and pRb are still fully functional in the U2OS cell line.
Routine culture of the adherent cells in non-PDL plastic ware in a humidified 37°C incubator with 5% CO2. Cells were maintained in McCoy's 5A (modified) medium with GlutaMAX supplement (Life Technologies 3660-021) and tetracycline-free FBS (Clontech 631106). Maintenance medium for the clonal cell lines expressing Tet repressor and exon 1 HTT/nanoluc constructs were additionally supplemented with zeocin to 100 ug/ml and blasticidin to 1.25 ug/ml. Cells were passaged at 70-80% confluence once or twice a week, either to a split ratio or defined seeding density using DPBS and TrypLE express enzyme (1x, no phenol red, Life technologies 12604-039) was used to dissociate the cells. Cells were frozen with Cell Banker (AMSBIO 11891) or with medium plus 10% DMSO and stored in liquid nitrogen vapour phase.
Stable, clonal cell lines (e.g. 1C6) are leveraged either identify potential druggable targets, and to assess the effectiveness of therapeutic compounds against a Huntington's disease, by way of quantifying CAG repeats expansion rates.
• Place a vial of the cell line U20S-IC6 (1-2×10^6 cells/mL), produced as described above, in a water bath at 37°C for 30 s. Once thawed, quickly transfer the cells into a 15 mL falcon tube containing 9 mL of McCoys 5A media, supplemented with 10% Tet-free FBS. • Pellet the cells by centrifugation at 300 x g for 5 m and discard the supernatant. • Resuspend the cell pellet in 10 mL fresh media and transfer to a sterile T75 culture flask. • Inspect the culture after 24 h and maintain the cells below 80% confluency, typically passaging every 3-4 days.
The Lo-Q platform has been optimised to run as a 2-week assay, following the standard processes detailed in the schematic in Figure 1A.
• Cell seeding for Lo-Q platform assays should be initiated on Mondays (am) to ensure Tetracycline pulsing can be maintained every other day. • The Friday prior to initiating any Lo-Q platform assay ensure there are sufficient cells in culture to seed the required number of assay plates. If required, passage the cells, otherwise perform a media change to McCoys 5A, 10% Tet-free FBS, 1.25 µg/mL Blasticidin®, and 100 µg/mL Zeocin®. • On the Monday morning, aspirate the media from the required number of culture flasks containing U20S-IC6 cells and wash with 2 mL PBS. • Aspirate the PBS and add 2 mL 0.25% Trypsin EDTA. […]

T1 sequence (P43246 whole entry): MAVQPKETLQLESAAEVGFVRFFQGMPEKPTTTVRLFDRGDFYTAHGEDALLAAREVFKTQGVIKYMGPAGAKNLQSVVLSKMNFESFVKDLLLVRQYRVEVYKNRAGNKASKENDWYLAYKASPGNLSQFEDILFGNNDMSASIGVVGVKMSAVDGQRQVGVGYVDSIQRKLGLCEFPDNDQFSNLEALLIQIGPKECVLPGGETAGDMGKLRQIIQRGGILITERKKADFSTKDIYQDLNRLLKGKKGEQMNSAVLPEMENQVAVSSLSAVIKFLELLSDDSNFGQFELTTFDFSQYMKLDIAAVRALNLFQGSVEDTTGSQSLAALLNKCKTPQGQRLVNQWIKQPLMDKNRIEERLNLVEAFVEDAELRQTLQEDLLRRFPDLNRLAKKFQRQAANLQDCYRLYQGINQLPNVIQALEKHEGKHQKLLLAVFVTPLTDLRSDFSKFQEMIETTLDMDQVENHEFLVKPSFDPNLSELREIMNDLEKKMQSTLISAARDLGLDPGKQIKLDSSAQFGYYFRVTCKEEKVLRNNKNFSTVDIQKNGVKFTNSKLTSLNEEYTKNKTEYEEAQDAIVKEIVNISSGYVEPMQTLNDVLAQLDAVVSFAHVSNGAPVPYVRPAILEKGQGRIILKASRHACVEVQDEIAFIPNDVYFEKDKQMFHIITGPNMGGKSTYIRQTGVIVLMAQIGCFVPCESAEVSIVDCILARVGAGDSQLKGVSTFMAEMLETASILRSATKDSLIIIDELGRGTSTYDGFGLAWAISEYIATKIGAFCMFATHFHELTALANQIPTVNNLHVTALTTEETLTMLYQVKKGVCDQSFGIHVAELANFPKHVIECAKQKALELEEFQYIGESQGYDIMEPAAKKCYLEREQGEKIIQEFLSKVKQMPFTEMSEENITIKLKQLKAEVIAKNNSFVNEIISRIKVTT
T1 sequence (P20585 whole entry): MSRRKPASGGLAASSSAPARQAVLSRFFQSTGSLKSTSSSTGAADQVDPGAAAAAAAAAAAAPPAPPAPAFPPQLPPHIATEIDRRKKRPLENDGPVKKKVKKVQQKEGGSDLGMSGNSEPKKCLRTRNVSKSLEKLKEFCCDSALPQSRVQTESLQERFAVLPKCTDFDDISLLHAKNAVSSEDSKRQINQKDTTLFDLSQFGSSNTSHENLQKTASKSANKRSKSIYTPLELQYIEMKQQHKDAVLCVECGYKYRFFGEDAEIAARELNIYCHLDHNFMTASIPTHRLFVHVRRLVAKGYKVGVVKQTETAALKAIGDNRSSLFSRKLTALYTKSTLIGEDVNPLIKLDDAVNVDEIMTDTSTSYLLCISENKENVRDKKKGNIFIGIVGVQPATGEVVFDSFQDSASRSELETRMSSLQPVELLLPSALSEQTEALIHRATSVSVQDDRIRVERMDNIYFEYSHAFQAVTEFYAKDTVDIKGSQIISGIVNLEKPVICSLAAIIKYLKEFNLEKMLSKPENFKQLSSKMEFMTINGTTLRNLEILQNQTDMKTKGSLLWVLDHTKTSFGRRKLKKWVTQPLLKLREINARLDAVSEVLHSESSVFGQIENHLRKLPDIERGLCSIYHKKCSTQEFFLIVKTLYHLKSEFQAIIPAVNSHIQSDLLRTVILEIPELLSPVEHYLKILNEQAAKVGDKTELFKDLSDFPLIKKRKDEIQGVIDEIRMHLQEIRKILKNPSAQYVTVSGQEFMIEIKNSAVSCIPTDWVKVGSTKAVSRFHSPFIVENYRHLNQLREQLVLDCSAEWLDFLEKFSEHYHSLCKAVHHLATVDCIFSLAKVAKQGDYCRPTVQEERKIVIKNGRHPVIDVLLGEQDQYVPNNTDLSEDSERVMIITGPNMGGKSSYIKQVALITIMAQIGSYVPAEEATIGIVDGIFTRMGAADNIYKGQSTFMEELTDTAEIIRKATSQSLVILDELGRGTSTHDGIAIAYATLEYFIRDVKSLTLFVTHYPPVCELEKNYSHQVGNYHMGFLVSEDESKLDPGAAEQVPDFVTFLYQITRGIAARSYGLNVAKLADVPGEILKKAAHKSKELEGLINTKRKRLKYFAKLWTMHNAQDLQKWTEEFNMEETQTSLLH

IC50 [1] [nM]	SMILES	minimal effective concentration [2] [µM]
≤ 500	CNS(=O)(=O)OCC(=O)N(C)c1nc(C)c(Cc2cccc(Cl)c2)s1 [Example 1, 2-((5-(3-chlorobenzyl)-4-methylthiazol-2-yl)(methyl)amino)-2-oxoethyl methylsulfamate]	≤ 0.1
≤ 500	CNS(=O)(=O)OCC(=O)Nc1nc(C)c(Cc2cccc(Br)c2)s1 [Example 10, 2-((5-(3-bromobenzyl)-4-methylthiazol-2-yl)amino)-2-oxoethyl methylsulfamate]	0.1 to 0.5
≤ 500	CNS(=O)(=O)OCC(=O)Nc1nc(C)c(Cc2ccc(Cl)c(Cl)c2)s1 [Example 12, 2-((5-(3,4-dichlorobenzyl)-4-methylthiazol-2-yl)amino)-2-oxoethyl methylsulfamate]	0.5 to 1
1000 to 10000	CNS(=O)(=O)OCC(=O)Nc1nc(C)c(Cc2ccc(F)c(F)c2)s1 [Example 14, 2-((5-(3,4-difluorobenzyl)-4-methylthiazol-2-yl)amino)-2-oxoethyl methylsulfamate]	0.1 to 0.5
1000 to 10000	CCNS(=O)(=O)OCC(=O)Nc1nc(C)c(Cc2ccc(C)cc2)s1 [Example 15, 2-((4-methyl-5-(4-methylbenzyl)thiazol-2-yl)amino)-2-oxoethyl ethylsulfamate]	0.5 to 1
500 to 1000	CNS(=O)(=O)OCC(=O)Nc1nc(C)c(Cc2cccc(Cl)c2)s1 [Example 19, 2-((5-(3-chlorobenzyl)-4-methylthiazol-2-yl)amino)-2-oxoethyl methylsulfamate]	≤ 0.1
1000 to 10000	CNS(=O)(=O)OCC(=O)Nc1nc(C)c(Cc2cccc(F)c2)s1 [Example 27, 2-((5-(3-fluorobenzyl)-4-methylthiazol-2-yl)amino)-2-oxoethyl methylsulfamate]	0.1 to 0.5
1000 to 10000	CCN(C)S(=O)(=O)OCC(=O)Nc1nc(C)c(Cc2ccc(C)cc2)s1 [Example 39, 2-((4-methyl-5-(4-methylbenzyl)thiazol-2-yl)amino)-2-oxoethyl ethyl(methyl)sulfamate]	1 to 5
≤ 500	CCNS(=O)(=O)OCC(=O)Nc1nc(C)c(Cc2cccc(Cl)c2)s1 [Example 46, 2-((5-(3-chlorobenzyl)-4-methylthiazol-2-yl)amino)-2-oxoethyl ethylsulfamate]	≤ 0.1
